{"source": "patent US20070203137A1", "about": "“New Salt” (ASTRAZENECA AB, priority 2006, published 2007)", "key": {"[1]": {"assay": "Hygroscopicity by Dynamic Vapour Sorption Analysis (DVS)", "assay_type": "physicochemical", "conditions": "25° C.", "description": "Dynamic Vapour Sorption Analysis (DVS)\nThe studies were undertaken using Dynamic Vapour Sorption Apparatus (DVS, Surface Measurement Systems, London UK). The apparatus consists of Cahn micobalance housed inside a temperature-controled cabinet. All experiments were performed at 25° C. The DVS was used to characterize the moisture uptake (w/w %) at different relative humidities (RH). Samples (5-10 mg) were weighed directly into the DSV sample cup and exposed to different relative humidities."}, "[2]": {"assay": "Photo stability of bulk substance (Suntest CPS+ cabinet)", "conditions": "29 hours", "protocol": "The exposure was 250 Wh/m^2 and 1.2 million lux hours over 29 hours."}}, "note": "Structures can show the parent of a compound that is named as a salt."}
{"compound": "N#Cc1ccc2[nH]c(O)c(-c3ccc(CN4CCOCC4)cn3)c2c1", "note": "[Citrate, 2-hydroxy-3-[5-(morpholin-4-ylmethyl)pyridin-2-yl]1H-indole-5-carbonitrile citrate]", "values": [{"measurement": "moisture uptake", "setting": "[1]; 40% relative humidity, citrate", "result": 7.1, "unit": "w/w %"}, {"measurement": "moisture uptake", "setting": "[1]; 60% relative humidity, citrate", "result": 7.6, "unit": "w/w %"}, {"measurement": "moisture uptake", "setting": "[1]; 80% relative humidity, citrate", "result": 8.0, "unit": "w/w %"}, {"measurement": "hygroscopicity compared with the hydrochloride salt", "setting": "[1]; DVS", "result": "lower hygroscopicity"}, {"measurement": "photo stability compared with the hydrochloride salt and the free base", "setting": "[2]", "result": "much higher photo stability"}]}
{"compound": "N#Cc1ccc2[nH]c(O)c(-c3ccc(CN4CCOCC4)cn3)c2c1", "note": "[HCl, hydrochloride salt of 2-hydroxy-3-[5-(morpholin-4-ylmethyl)pyridin-2-yl]1H-indole-5-carbonitrile, reference compound]", "values": [{"measurement": "moisture uptake", "setting": "[1]; 40% relative humidity", "result": 8.7, "unit": "w/w %"}, {"measurement": "moisture uptake", "setting": "[1]; 60% relative humidity", "result": 11.5, "unit": "w/w %"}, {"measurement": "moisture uptake", "setting": "[1]; 80% relative humidity", "result": 13.0, "unit": "w/w %"}]}
